Structures can show the parent of a compound that is named as a salt.
How the values were obtained:
[1] = target: T1, Noradrenaline (NA) reuptake (Rattus norvegicus, UniProt Q63380); assay: Noradrenaline (NA) reuptake inhibition in rat brain synaptosomes (hypothalamus, P2 fraction); format: biochemical; details: for inhibition at 10 µM: read-out: NA reuptake, % inhibition [10 μM]
T1 construct: synaptosomes are freshly isolated from areas of rat brain; from tissue; host or cells: rat hypothalamus synaptosomes (P2 fraction)
Procedure, shortened: (§1)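 Freshly isolated rat brain synaptosomes (P2 fraction, Gray–Whittaker method) used for uptake; for NA uptake the particles came from hypothalamus of male rats.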

human μ-opiate receptor = human μ-opiate receptor (Homo sapiens, UniProt P35372); assay: Affinity for the human μ-opiate receptor ([3H]-naloxone displacement, SPA, CHO-K1 membrane preparation); format: binding; details: for inhibition at 1 µM: 1 μM test substance, inhibition of specific [3H]-naloxone binding, read-out: μ-Opioid receptor, % inhibition [1 μM]; for Ki: read-out: μ-Opioid receptor, Ki
Serotonin (5HT) reuptake = target: T2, Serotonin (5HT) reuptake (Rattus norvegicus, UniProt P31652); assay: Serotonin (5HT) reuptake inhibition in rat brain synaptosomes (P2 fraction); format: biochemical; details: for inhibition at 10 µM: read-out: Serotonin reuptake, % inhibition [10 μM]
T2 construct: synaptosomes are freshly isolated from areas of rat brain; from tissue; host or cells: rat brain synaptosomes (P2 fraction)
Procedure, shortened: as §1

mouse = assay: In vivo studies of analgesia: tail-flick test in the mouse; details: iv, dose 10 mg/kg (i.v.), read-out: Activity % MPE
Source text: In vivo Studies of Analgesia: Tail-flick Test in the Mouse
The mice were each placed individually into a test cage and the base of the tail was exposed to the focused heat ray of an electric lamp (tail-flick type 50/08/1.bc, Labtec, Dr. Hess). The intensity of the lamp was adjusted so that the time from switching on of the lamp to the sudden twitching away of the tail (latency of pain) in untreated mice was from 3 to 5 seconds. Before administration of the solutions comprising the compound according to the invention, or of the particular comparison solutions, the mice were pre-tested twice in the course of five minutes and the mean of these measurements was calculated as the pre-test mean.
The solutions of the compound of the general formula I according to the invention and the comparison solutions were then administered intravenously.
Pain measurement was carried out in each case 10, 20, 40 and 60 minutes following the intravenous administration. The analgesic activity was determined as the increase in the latency of pain (% of the maximum possible antinociceptive effect) according to the following formula: [(T1−T0)/(T2−T0)]×100 where time T0 is the latency before administration, time T1 is the latency after administration of the active ingredient combination and time T2 is the maximum exposure time (12 seconds).
The in-depth study of analgesic activity was carried out in the tail-flick test in the mouse, as described above.

T2 sequence (P31652 whole entry): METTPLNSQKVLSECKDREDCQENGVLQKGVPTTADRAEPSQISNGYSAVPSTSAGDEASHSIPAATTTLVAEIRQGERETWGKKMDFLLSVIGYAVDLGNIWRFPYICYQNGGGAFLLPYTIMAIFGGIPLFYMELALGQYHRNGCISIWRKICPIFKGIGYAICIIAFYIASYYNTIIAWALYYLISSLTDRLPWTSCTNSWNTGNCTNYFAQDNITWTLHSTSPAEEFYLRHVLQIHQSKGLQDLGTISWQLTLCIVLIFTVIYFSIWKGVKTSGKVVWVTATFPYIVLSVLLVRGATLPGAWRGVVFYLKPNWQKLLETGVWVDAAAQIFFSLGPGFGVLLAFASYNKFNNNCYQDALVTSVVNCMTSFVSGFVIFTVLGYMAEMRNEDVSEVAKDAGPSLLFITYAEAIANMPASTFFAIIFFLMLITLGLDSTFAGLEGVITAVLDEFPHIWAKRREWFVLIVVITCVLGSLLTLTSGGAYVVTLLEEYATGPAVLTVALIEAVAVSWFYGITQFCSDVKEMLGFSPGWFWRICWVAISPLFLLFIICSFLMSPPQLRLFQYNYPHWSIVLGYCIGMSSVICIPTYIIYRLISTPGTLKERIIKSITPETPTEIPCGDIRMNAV
human μ-opiate receptor, sequence (P35372 whole entry): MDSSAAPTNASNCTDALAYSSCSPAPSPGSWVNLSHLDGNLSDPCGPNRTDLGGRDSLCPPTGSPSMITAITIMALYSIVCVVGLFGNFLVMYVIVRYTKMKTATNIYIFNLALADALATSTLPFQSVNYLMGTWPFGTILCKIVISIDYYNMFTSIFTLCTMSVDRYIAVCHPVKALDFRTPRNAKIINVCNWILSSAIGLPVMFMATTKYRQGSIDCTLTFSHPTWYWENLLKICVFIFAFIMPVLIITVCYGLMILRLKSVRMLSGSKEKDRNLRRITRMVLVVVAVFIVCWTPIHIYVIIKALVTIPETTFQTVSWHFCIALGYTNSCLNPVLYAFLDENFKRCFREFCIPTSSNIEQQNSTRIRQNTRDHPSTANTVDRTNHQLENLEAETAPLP
T1 sequence (Q63380 1-617): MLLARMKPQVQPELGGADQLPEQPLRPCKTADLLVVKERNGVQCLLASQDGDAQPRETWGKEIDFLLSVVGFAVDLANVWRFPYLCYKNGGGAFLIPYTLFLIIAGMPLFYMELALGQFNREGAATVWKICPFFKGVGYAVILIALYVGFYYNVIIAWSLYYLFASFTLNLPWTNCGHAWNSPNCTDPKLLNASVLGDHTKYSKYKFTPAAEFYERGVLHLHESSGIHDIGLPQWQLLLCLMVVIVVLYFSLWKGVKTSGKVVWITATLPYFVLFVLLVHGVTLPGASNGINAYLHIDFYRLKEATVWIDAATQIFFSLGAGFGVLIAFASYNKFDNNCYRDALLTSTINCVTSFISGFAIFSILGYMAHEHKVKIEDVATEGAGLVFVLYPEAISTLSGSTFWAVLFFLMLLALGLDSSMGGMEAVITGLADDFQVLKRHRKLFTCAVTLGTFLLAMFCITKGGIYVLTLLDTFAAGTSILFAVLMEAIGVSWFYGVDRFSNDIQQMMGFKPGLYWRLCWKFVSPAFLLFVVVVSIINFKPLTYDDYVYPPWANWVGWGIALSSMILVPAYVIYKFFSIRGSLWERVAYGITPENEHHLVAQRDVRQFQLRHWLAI

| Structure (SMILES) | Ki [1] | inhibition at 10 µM [1] | inhibition at 1 µM (human μ-opiate receptor) | Ki (Serotonin (5HT) reuptake) | inhibition at 10 µM (Serotonin (5HT) reuptake) | % maximum possible antinociceptive effect at 10 mg/kg (mouse) | Ki (human μ-opiate receptor) |
| --- | --- | --- | --- | --- | --- | --- | --- |
| CN(C)C(c1ccccc1)[C@H]1CC[C@H](CCc2ccccc2)CC1 (relative stereo) [compound 146, trans-N,N-dimethyl(4-phenethylcyclohexyl)(phenyl)methanamine hydrochloride] | 0.6 µM | 94% | 97% | 0.15 µM | 92% | 21% |  |
| CN(C)C(c1ccccc1)C1CCC(CO)CC1 (stereo not drawn) [compound 117, [4-(dimethylamino-phenyl-methyl)-cyclohexyl]-methanol] |  | 82% | 57% |  | 85% |  |  |
| CN(C)C(c1ccc(F)cc1)C1CCC(CO)CC1 (stereo not drawn) [compound 118, {4-[dimethylamino-(4-fluorophenyl)-methyl]-cyclohexyl}-methanol] |  | 91% | 33% |  | 90% |  |  |
| CN(C)C(c1cccc(F)c1)C1CCC(CO)CC1 (stereo not drawn) [compound 119, {4-[dimethylamino-(3-fluorophenyl)-methyl]-cyclohexyl}-methanol] |  | 91% | 43% |  | 88% |  |  |
| CN(C)C(c1ccc(Cl)cc1)C1CCC(CO)CC1 (stereo not drawn) [compound 120, {4-[(4-chlorophenyl)-dimethylamino-methyl]-cyclohexyl}-methanol] |  | 93% | 51% |  | 79% |  |  |
| CN(C)C(c1cccs1)C1CCC(CO)CC1 (stereo not drawn) [compound 121, [4-(dimethylamino-thiophen-2-yl-methyl)-cyclohexyl]-methanol] |  | 66% | 61% |  | 74% |  |  |
| CN(C)C(CCc1ccccc1)C1CCC(CO)CC1 (stereo not drawn) [compound 122, [4-(1-dimethylamino-3-phenyl-propyl)-cyclohexyl]-methanol] |  | 97% | 32% |  | 77% |  |  |
| CCOC(=O)C=C1CCC(C(c2ccccc2)N(C)C)CC1 (stereo not drawn) [compound 123, [4-(dimethylamino-phenyl-methyl)-cyclohexylidene]-acetic acid ethyl ester] |  | 66% | 75% |  | 92% |  | 0.19 µM |
| CCOC(=O)CC1CCC(C(c2ccccc2)N(C)C)CC1 (stereo not drawn) [compound 124, [4-(dimethylamino-phenyl-methyl)-cyclohexyl]-acetic acid ethyl ester] |  | 76% | 79% | 0.097 µM | 85% |  | 0.079 µM |
| CN(C)C(c1ccccc1)C1CCC(CCO)CC1 (stereo not drawn) [compound 125, 2-[4-(dimethylamino-phenyl-methyl)-cyclohexyl]-ethanol] |  | 86% | 62% |  | 82% |  |  |
| CCOC(=O)C=C1CCC(C(c2ccc(F)cc2)N(C)C)CC1 (stereo not drawn) [compound 126, {4-[dimethylamino-(4-fluorophenyl)-methyl]-cyclohexylidene}-acetic acid ethyl ester] |  | 81% | 35% |  | 86% |  |  |
| CCOC(=O)CC1CCC(C(c2ccc(F)cc2)N(C)C)CC1 (stereo not drawn) [compound 127, {4-[dimethylamino-(4-fluorophenyl)-methyl]-cyclohexyl}-acetic acid ethyl ester] |  | 89% | 34% |  | 90% |  |  |
| CN(C)C(c1ccc(F)cc1)C1CCC(CCO)CC1 (stereo not drawn) [compound 128, 2-{4-[dimethylamino-(4-fluorophenyl)-methyl]-cyclohexyl}-ethanol] |  | 88% | 18% |  | 84% |  |  |
| CCOC(=O)C=C1CCC(C(c2cccc(F)c2)N(C)C)CC1 (stereo not drawn) [compound 129, {4-[dimethylamino-(3-fluorophenyl)-methyl]-cyclohexylidene}-acetic acid ethyl ester] |  | 81% | 47% | 0.086 µM | 91% |  | 0.54 µM |
| CCOC(=O)CC1CCC(C(c2cccc(F)c2)N(C)C)CC1 (stereo not drawn) [compound 130, {4-[dimethylamino-(3-fluorophenyl)-methyl]-cyclohexyl}-acetic acid ethyl ester] |  | 82% | 82% | 0.016 µM | 93% |  | 0.23 µM |
| CN(C)C(c1cccc(F)c1)C1CCC(CCO)CC1 (stereo not drawn) [compound 131, 2-{4-[dimethylamino-(3-fluorophenyl)-methyl]-cyclohexyl}-ethanol] |  | 89% | 68% |  | 91% |  |  |
| CCOC(=O)C=CC1CCC(C(c2ccccc2)N(C)C)CC1 (stereo not drawn) [compound 132, 3-[4-(dimethylamino-phenyl-methyl)-cyclohexyl]-acrylic acid ethyl ester] | 0.59 µM | 84% | 91% | 0.42 µM | 86% |  | 0.12 µM |
| CCOC(=O)CCC1CCC(C(c2ccccc2)N(C)C)CC1 (stereo not drawn) [compound 133, 3-[4-(dimethylamino-phenyl-methyl)-cyclohexyl]-propionic acid ethyl ester] |  | 87% | 81% | 0.099 µM | 89% |  | 0.096 µM |
| CN(C)C(c1ccccc1)C1CCC(CCCO)CC1 (stereo not drawn) [compound 134, 3-[4-(dimethylamino-phenyl-methyl)-cyclohexyl]-propan-1-ol] |  | 90% | 45% |  | 86% |  |  |
| CCOC(=O)C=CC1CCC(C(c2ccc(F)cc2)N(C)C)CC1 (stereo not drawn) [compound 135, 3-{4-[dimethylamino-(4-fluorophenyl)-methyl]-cyclohexyl}-acrylic acid ethyl ester] | 0.49 µM | 90% | 70% | 0.22 µM | 78% |  | 0.38 µM |
| CCOC(=O)CCC1CCC(C(c2ccc(F)cc2)N(C)C)CC1 (stereo not drawn) [compound 136, 3-{4-[dimethylamino-(4-fluorophenyl)-methyl]-cyclohexyl}-propionic acid ethyl ester] | 0.58 µM | 89% | 73% | 0.083 µM | 86% |  | 0.23 µM |
| CN(C)C(c1ccc(F)cc1)C1CCC(CCCO)CC1 (stereo not drawn) [compound 137, 3-{4-[dimethylamino-(4-fluorophenyl)-methyl]-cyclohexyl}-propan-1-ol] |  | 93% | 13% |  | 89% |  |  |
| CCOC(=O)C=CC1CCC(C(c2cccc(F)c2)N(C)C)CC1 (stereo not drawn) [compound 138, 3-{4-[dimethylamino-(3-fluorophenyl)-methyl]-cyclohexyl}-acrylic acid ethyl ester] | 0.62 µM | 96% | 73% | 0.31 µM | 84% |  | 0.092 µM |
| CCOC(=O)CCC1CCC(C(c2cccc(F)c2)N(C)C)CC1 (stereo not drawn) [compound 139, 3-{4-[dimethylamino-(3-fluorophenyl)-methyl]-cyclohexyl}-propionic acid ethyl ester] | 0.79 µM | 94% | 90% | 0.058 µM | 89% |  | 0.044 µM |
| CN(C)C(c1cccc(F)c1)C1CCC(CCCO)CC1 (stereo not drawn) [compound 140, 3-{4-[dimethylamino-(3-fluorophenyl)-methyl]-cyclohexyl}-propan-1-ol] |  | 94% | 31% |  | 85% |  |  |
| CN(C)C(CCc1ccccc1)C1CCC(CCCO)CC1 (stereo not drawn) [compound 143, 3-[4-(1-dimethylamino-3-phenyl-propyl)-cyclohexyl]-propan-1-ol] |  | 100% | 24% |  | 90% |  |  |
| CN(C)C(c1ccccc1)C1CCC(OCc2ccccc2)CC1 (stereo not drawn) [compound 144, 4-(benzyloxy)cyclohexyl)-N,N-dimethyl(phenyl)methanamine hydrochloride] |  | 75% | 81% |  | 80% |  | 0.12 µM |
| CN(C)C(c1ccccc1)C1CCC(OCc2ccc(F)cc2)CC1 (stereo not drawn) [compound 145, 4-(4-fluorobenzyloxy)cyclohexyl)-N,N-dimethyl(phenyl)methanamine hydrochloride] |  | 84% | 73% | 0.29 µM | 83% |  | 0.31 µM |
| COc1ccc(OC)c(C2(O)CCC(C(c3ccccc3)N(C)C)CC2)c1 (stereo not drawn) [compound 149, 1-(2,5-Dimethoxyphenyl)-4-((dimethylamino)(phenyl)methyl)cyclohexanol hydrochloride] |  | 75% | 82% |  | 85% |  |  |

Reference: patent US8058475B2, “Substituted cyclohexylmethyl compounds” (Gruenenthal GmbH, priority 2005, dated 2011)
